Measurements published in the supplement of paper PMC10307832.

Experiments:
Test in all cases: relative viability (nuclei count vs DMSO), 5 days (fraction); higher = more cells survive
[1] = compound: CC1=C(N=C(N=C1N)[C@H](CC(=O)N)NC[C@@H](C(=O)N)N)C(=O)N[C@@H]([C@H](C2=CN=CN2)OC3C(C(C(C(O3)CO)O)O)OC4C(C(C(C(O4)CO)O)OC(=O)N)O)C(=O)N[C@H](C)[C@H]([C@H](C)C(=O)N[C@@H]([C@@H](C)O)C(=O)NCCC5=NC(=CS5)C6=NC(=CS6)C(=O)NCCC[S+](C)C)O [Bleomycin]; conditions: main component drawn
How it was run: (§1)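 In 1536-well plates, lung cancer cell lines rested overnight at 37 °C before five library-drug doses (not always all listed), √10 apart, were pinned onto vehicle-anchored plates. Nuclei were counted with MetaXpress from 4× Hoechst images taken after 5 days without medium change. Viability compares treated-well with vehicle-well nuclei as a median over plates, and plates needed control CV below 25% plus at least one doubling to pass.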

[2] = compound: COc1cc([C@@H]2c3cc4c(cc3[C@@H](O[C@@H]3O[C@@H]5CO[C@@H](C)O[C@H]5[C@H](O)[C@H]3O)[C@H]3COC(=O)[C@H]23)OCO4)cc(OC)c1O [Etoposide]
How it was run: as §1

[3] = compound: COc1cc([C@@H]2c3cc4c(cc3[C@@H](O[C@@H]3O[C@@H]5CO[C@@H](C)O[C@H]5[C@H](O)[C@H]3O)[C@H]3COC(=O)[C@H]23)OCO4)cc(OC)c1O [Etoposide] + CC1(C)CCC(c2ccc(Cl)cc2)=C(CN2CCN(c3ccc(C(=O)NS(=O)(=O)c4ccc(N[C@H](CCN5CCOCC5)CSc5ccccc5)c(S(=O)(=O)C(F)(F)F)c4)cc3)CC2)C1 [Navitoclax] (partner 0.5 µM)
How it was run: (§2)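 Values are medians from duplicate plates. Each reflects relative viability, defined as the nuclei count of treated wells over that of vehicle wells. Lung cancer cell lines in 1536-well plates were pin-tool dosed one day after seeding with one drug alone or with a fixed anchor-drug dose plus five library-drug doses (not always all listed) in √10 steps, then fixed, stained and imaged at 4× after 5 days.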

[4] = compound: CC1=C(N=C(N=C1N)[C@H](CC(=O)N)NC[C@@H](C(=O)N)N)C(=O)N[C@@H]([C@H](C2=CN=CN2)OC3C(C(C(C(O3)CO)O)O)OC4C(C(C(C(O4)CO)O)OC(=O)N)O)C(=O)N[C@H](C)[C@H]([C@H](C)C(=O)N[C@@H]([C@@H](C)O)C(=O)NCCC5=NC(=CS5)C6=NC(=CS6)C(=O)NCCC[S+](C)C)O [Bleomycin] + CC(=O)Nc1cccc(-n2c(=O)n(C3CC3)c(=O)c3c(Nc4ccc(I)cc4F)n(C)c(=O)c(C)c32)c1 [Trametinib] (partner 0.02 µM); conditions: main component drawn
How it was run: as §2

Cell Line	relative viability ([1]; 0.01 µM)	relative viability ([1]; 0.03162 µM)	relative viability ([1]; 0.1 µM)	relative viability ([1]; 0.3162 µM)	relative viability ([1]; 1 µM)	relative viability ([2]; 0.01 µM)	relative viability ([2]; 0.03162 µM)	relative viability ([2]; 0.1 µM)	relative viability ([2]; 0.3162 µM)	relative viability ([2]; 1 µM)	relative viability ([3]; first compound 0.01 µM)	relative viability ([3]; first compound 0.03162 µM)	relative viability ([3]; first compound 0.1 µM)	relative viability ([3]; first compound 0.3162 µM)	relative viability ([3]; first compound 1 µM)	relative viability ([4]; first compound 0.01 µM)	relative viability ([4]; first compound 0.03162 µM)	relative viability ([4]; first compound 0.1 µM)	relative viability ([4]; first compound 0.3162 µM)	relative viability ([4]; first compound 1 µM)
NCI-H23	0.458	0.439	0.304	0.218	0.161	1.02	1.03	0.671	0.371	0.212	0.733	0.816	0.502	0.421	0.254	0.226	0.321	0.189	0.161	0.144
PC-3 [JPC-3]	1.01	1.01	0.939	0.73	0.535	1.03	1.1	1.07	0.989	0.837	0.784	0.825	0.6	0.787	0.703	0.68	0.722	0.617	0.449	0.433
NCI-H1437	0.879	0.985	0.886	0.654	0.567	1.04	1.07	0.999	0.68	0.343	1.11	1.01	1.01	0.524	0.296	0.475	0.411	0.678	0.439	0.276
NCI-H520	0.901	0.92	0.816	0.747	0.602	0.881	0.879	0.636	0.87	0.709	0.985	1	1.08	0.951	0.956	0.673	0.608	0.814	0.547	0.394
NCI-H1666	0.781	0.737	0.649	0.474	0.451	0.947	0.908	0.818	0.483	0.414	0.788	0.875	0.549	0.353	0.263	0.717	0.783	0.76	0.533	0.581
NCI-H1651	0.865	0.825	0.711	0.456	0.254	0.976	0.997	0.792	0.485	0.199	0.866	0.881	0.808	0.242	0.154	0.818	0.712	0.714	0.368	0.223
NCI-H1755	0.94	1	0.96	0.813	0.673	0.998	1.05	0.963	0.935	0.829	0.917	1.03	1.07	0.939	0.882	0.734	0.726	0.78	0.665	0.61
NCI-H727	0.891	0.777	0.831	0.391	0.687	0.945	1.04	0.586	0.87	0.852	0.439	0.553	0.369	0.488	0.319	0.376	0.321	0.392	0.404	0.406
HARA	0.804	0.769	0.842	0.506	0.537	0.856	1.18	0.979	0.849	0.348	1.11	1.16	1.17	0.864	0.337	0.899	0.325	0.448	0.347	0.328
NCI-H647	0.397	0.369	0.237	0.125	0.0764	0.815	1.07	0.815	0.442	0.195	0.936	1.18	0.961	0.261	0.241	0.35	0.217	0.158	0.114	0.111
